target: T1, human OX2 receptor (Homo sapiens, UniProt O43614); experiment: Measurement of orexin type 2 receptor agonist activity (Experimental Example 2; Fluo-4 AM calcium fluorescence, FDSS μCELL); format: cell-based; conditions: compound at 3 μM; CHO cells expressing human OX2 receptor; DMSO = 0%, 10 nM orexin A (human) = 100%
T1 construct: expressed in transfected cells
T1 sequence (O43614 1-444): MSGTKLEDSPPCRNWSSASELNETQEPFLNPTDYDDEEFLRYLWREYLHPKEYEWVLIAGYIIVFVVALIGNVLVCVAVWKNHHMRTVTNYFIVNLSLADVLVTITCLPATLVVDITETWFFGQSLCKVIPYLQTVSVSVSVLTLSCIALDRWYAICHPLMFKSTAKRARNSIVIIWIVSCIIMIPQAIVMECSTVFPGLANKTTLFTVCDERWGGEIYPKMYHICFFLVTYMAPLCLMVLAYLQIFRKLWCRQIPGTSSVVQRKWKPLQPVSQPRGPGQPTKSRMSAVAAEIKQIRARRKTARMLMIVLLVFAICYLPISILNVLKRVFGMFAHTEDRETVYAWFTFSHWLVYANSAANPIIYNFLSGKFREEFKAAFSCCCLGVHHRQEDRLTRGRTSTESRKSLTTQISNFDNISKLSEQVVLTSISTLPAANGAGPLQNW
Method: In order to obtain cell clones that stably express human orexin type 2 receptor, human orexin type 2 (residues 1-444, NCBI Reference Sequence: AK314279) was constructed in a pcDNA3.1 (+) vector (Invitrogen) to express in mammalian cells. This plasmid DNA was transfected into CHO-K1 cells by electroporation, and stable clones were obtained by limiting dilution using resistance to G418 as a selection marker.
CHO cells in which human OX2 receptor was forcibly expressed were seeded at 10,000 cells/well into a 384-well black transparent bottom plate (BD falcon), and were incubated at 37° C., 5% CO2 for 1 day after incubation at room temperature for 30 minutes. After removing the cell plate medium, assay buffer containing calcium indicator A (HBSS (Thermo Fisher Scientific), 20 mM HEPES (Thermo Fisher Scientific), 0.1% BSA (Sigma-Aldrich), 2.5 μg/mL Fluo-4 AM (Dojin Kagaku), 0.08% Pluronic F127 (Dojin Kagaku), 1.25 mM probenecid (Dojin Kagaku)) was added at 30 μL/well. After incubation in a 5% CO2 incubator at 37° C. for 30 minutes, it was incubated at room temperature for another 30 minutes. Add 10 μL/well of the test compound diluted with assay buffer B (HBSS, 20 mM HEPES, 0.1% BSA), and use FDSS μCELL (Hamamatsu Photonics) to measure the fluorescence value every 1 second for 1 minute, and then every 2 seconds for 1 minute. It was measured for 1 minute and 40 seconds. The amount of fluorescence value when DMSO is added instead of the test compound is defined as 0%, and the amount of fluorescence value when orexin A (human) (Peptide Institute) with a final concentration of 10 nM is added is defined as 100%. The activity (%) of the test compound was calculated. Table 2-1, 2-2, 2-3, and 2-4 show the activity of each compound at a concentration of 3 μM.

SMILES	OX2R agonist activity (3 μM, %)
CS(=O)(=O)N[C@@H]1[C@@H]2Cc3cccc(c3F)Oc3nc(ccc3C(F)F)CNC(=O)N2CC1(F)F [Example 41, N-[(15aS,16R)-7-(difluoromethyl)-17,17,20-trifluoro-1-oxo-2,3,15a,16,17,18-hexahydro-1H,15H-8,4-(azeno)-10,14-(metheno)pyrrolo[1,2-j][1,8,10]oxadiazacyclo-heptadecin-16-yl]methanesulfonamide]	107%
CCS(=O)(=O)N[C@H]1[C@@H](F)CN2C(=O)NCc3ccc(C(F)F)c(n3)Oc3cccc(c3F)C[C@@H]12 [Example 27, N-[(15aS,16R,17S)-7-(difluoromethyl)-17,20-difluoro-1-oxo-2,3,15a,16,17,18-hexahydro-1H,15H-8,4-(azeno)-10,14-(metheno)pyrrolo[1,2-j][1,8,10]oxadiazacyclo-heptadecin-16-yl]ethanesulfonamide]	102%
CN(C)S(=O)(=O)N[C@H]1[C@@H](F)CN2C(=O)NCc3ccc(Cl)c(n3)Oc3cccc(c3F)C[C@@H]12 [Example 34, N′-[(15aS,16R,17S)-7-chloro-17,20-difluoro-1-oxo-2,3,15a,16,17,18-hexahydro-1H,15H-4,8-(azeno)-14,10-(metheno)pyrrolo[1,2-j][1,8,10]oxadiazacyclo-heptadecin-16-yl]-N,N-dimethylsulfuric diamide]	93%
O=C1NCc2ccc(C(F)F)c(n2)Oc2cccc(c2F)C[C@H]2[C@@H](NS(=O)(=O)C3CC3)[C@@H](F)CN12 [Example 28, N-[(15aS,16R,17S)-7-(difluoromethyl)-17,20-difluoro-1-oxo-2,3,15a,16,17,18-hexahydro-1H,15H-8,4-(azeno)-10,14-(metheno)pyrrolo[1,2-j][1,8,10]oxadiazacyclo-heptadecin-16-yl]cyclopropanesulfonamide]	94%
CS(=O)(=O)N[C@H]1[C@@H](F)CN2C(=O)NCc3cc(c(Cl)cn3)Oc3cccc(c3F)C[C@@H]12 [Example 44, N-[(15aS,16R,17S)-7-chloro-17,20-difluoro-1-oxo-2,3,15a,16,17,18-hexahydro-1H,15H-4,8:14,10-di(metheno)pyrrolo[1,2-j][1,5,8,10]oxatriazacyclo-heptadecin-16-yl]methanesulfonamide]	84%
CCS(=O)(=O)N[C@H]1[C@@H](F)CN2C(=O)COc3ccc(Cl)c(n3)Oc3cc(ccc3F)C[C@@H]12 (relative stereo) [Example 91, N-[rel-(15aR,16S,17R)-7-chloro-11,17-difluoro-1-oxo-1,2,15a,16,17,18-hexahydro-15H-4,8-(azeno)-14,10-(metheno)pyrrolo[1,2-d][1,12,4]dioxazacyclohepta-decin-16-yl]ethanesulfonamide (optical isomer)]	106%
CS(=O)(=O)N[C@@H]1[C@@H]2Cc3cccc(c3F)Oc3nc(ccc3Cl)OCC(=O)N2CC1(F)F [Example 62, N-[(15aS,16R)-7-chloro-17,17,20-trifluoro-1-oxo-1,2,15a,16,17,18-hexahydro-15H-4,8-(azeno)-14,10-(metheno)pyrrolo[1,2-d][1,12,4]dioxazacyclo-heptadecin-16-yl]methanesulfonamide]	102%
CCc1ccc2nc1Oc1cccc(c1F)C[C@H]1[C@@H](NS(C)(=O)=O)C(F)(F)CN1C(=O)NC2 [Example 79, N-[(15aS,16R)-7-ethyl-17,17,20-trifluoro-1-oxo-2,3,15a,16,17,18-hexahydro-1H,15H-4,8-(azeno)-14,10-(metheno)pyrrolo[1,2-j][1,8,10]oxadiazacyclo-heptadecin-16-yl]methanesulfonamide]	102%
Cc1ccc2nc1Oc1cccc(c1F)C[C@H]1[C@@H](NS(=O)(=O)C(F)F)C(F)(F)CN1C(=O)NC2 [Example 43, 1,1-difluoro-N-[(15aS,16R)-17,17,20-trifluoro-7-methyl-1-oxo-2,3,15a,16,17,18-hexahydro-1H,15H-4,8-(azeno)-10,14-(metheno)pyrrolo[1,2-j][1,8,10]oxadiazacyclo-heptadecin-16-yl]methanesulfonamide]	101%
CCS(=O)(=O)N[C@@H]1[C@@H]2Cc3cccc(c3F)Oc3nc(ccc3C(F)F)CNC(=O)N2CC1(F)F [Example 29, N-[(15aS,16R)-7-(difluoromethyl)-17,17,20-trifluoro-1-oxo-2,3,15a,16,17,18-hexahydro-1H,15H-4,8-(azeno)-10,14-(metheno)pyrrolo[1,2-j][1,8,10]oxadiazacyclo-heptadecin-16-yl]ethanesulfonamide]	100%
CS(=O)(=O)N[C@@H]1[C@@H]2Cc3cccc(c3F)Oc3nc(cs3)CNC(=O)N2CC1(F)F [Example 85, N-[(14aS,15R)-16,16,19-trifluoro-1-oxo-2,3,14a,15,16,17-hexahydro-1H,14H-4,7-(azeno)-9,13-(metheno)pyrrolo[1,2-i][1,3,7,9]oxathiadiazacyclo-hexadecin-15-yl]methanesulfonamide]	95%
COCS(=O)(=O)N[C@@H]1[C@@H]2Cc3cccc(c3F)Oc3nc(ccc3C)CNC(=O)N2CC1(F)F [Example 46, 1-methoxy-N-[(15aS,16R)-17,17,20-trifluoro-7-methyl-1-oxo-2,3,15a,16,17,18-hexahydro-1H,15H-4,8-(azeno)-14,10-(metheno)pyrrolo[1,2-j][1,8,10]oxadiazacyclo-heptadecin-16-yl]methanesulfonamide]	99%
CCS(=O)(=O)N[C@@H]1[C@@H]2Cc3cccc(c3F)Oc3nc(cnc3C)OCC(=O)N2CC1(F)F [Example 81, N-[(15aS,16R)-17,17,20-trifluoro-7-methyl-1-oxo-1,2,15a,16,17,18-hexahydro-15H-4,8-(azeno)-10,14-(metheno)pyrrolo[1,2-j][1,7,4,10]dioxadiazacyclo-heptadecin-16-yl]ethanesulfonamide]	102%
CS(=O)(=O)N[C@H]1CCN2C(=O)NCc3ccc(C(F)F)c(n3)Oc3cccc(c3)C[C@@H]12 [Example 8, N-[(15aS,16S)-7-(difluoromethyl)-1-oxo-2,3,15a,16,17,18-hexahydro-1H,15H-4,8-(azeno)-14,10-(metheno)pyrrolo[1,2-j][1,8,10]oxadiazacyclo-heptadecin-16-yl]methanesulfonamide]	100%
CCS(=O)(=O)N[C@@H]1[C@@H]2Cc3cccc(c3F)Oc3nc(ccc3C)C(C)NC(=O)N2CC1(F)F (stereo partly drawn) [Example 49, N-[(15aS,16R)-17,17,20-trifluoro-3,7-dimethyl-1-oxo-2,3,15a,16,17,18-hexahydro-1H,15H-4,8-(azeno)-14,10-(metheno)pyrrolo[1,2-j][1,8,10]oxadiazacyclo-heptadecin-16-yl]ethanesulfonamide (optical isomer)]	97%
Cc1ccc2nc1Oc1cccc(c1F)C[C@H]1[C@@H](NS(=O)(=O)C3CC3)C(F)(F)CN1C(=O)NC2 [Example 23, N-[(15aS,16R)-17,17,20-trifluoro-7-methyl-1-oxo-2,3,15a,16,17,18-hexahydro-1H,15H-4,8-(azeno)-14,10-(metheno)pyrrolo[1,2-j][1,8,10]oxadiazacyclo-heptadecin-16-yl]cyclopropanesulfonamide]	96%
CN(C)S(=O)(=O)N[C@H]1[C@@H](F)CN2C(=O)NCc3ccc(C(F)F)c(n3)Oc3cccc(c3F)C[C@@H]12 [Example 37, N′-[(15aS,16R,17S)-7-(difluoromethyl)-17,20-difluoro-1-oxo-2,3,15a,16,17,18-hexahydro-1H,15H-8,4-(azeno)-10,14-(metheno)pyrrolo[1,2-j][1,8,10]oxadiazacyclo-heptadecin-16-yl]-N,N-dimethylsulfuric diamide]	101%
CCS(=O)(=O)N[C@H]1[C@@H](F)CN2C(=O)NCc3ncc(C)c(n3)Oc3cccc(c3F)C[C@@H]12 [Example 55, N-[(15aS,16R,17S)-17,20-difluoro-7-methyl-1-oxo-2,3,15a,16,17,18-hexahydro-1H,15H-4,8-(azeno)-10,14-(metheno)pyrrolo[1,2-j][1,5,8,10]oxatriazacyclo-heptadecin-16-yl]ethanesulfonamide]	107%

Source: US20240309016A1, “MACROCYCLIC HETEROCYCLE COMPOUNDS AND USE THEREOF” (TAKEDA PHARMACEUTICAL COMPANY LIMITED, priority 2023, published 2024)
